From patent publication US5773573A, “HIV peptides” (priority 1994, dated 1998)
Residues, ends and D or L forms follow the SMILES beside them.

Assay: White cell and T cell subset counts (CD4, CD8, NK) in HIV infected patient given HEP1
Type: in vivo, human
Conditions: patient three
Experimental: The objective of this study was to determine in an HIV infected patient if the induction of immunological tolerance to HEP1 could reduce immune activation and HIV infection. The design of the first clinical experiment was to orally administer HEP1 to the patient in daily 10 mg doses (the lower end of the preferred dose range). This was then followed approximately three months later with a subcutaneous administration of HEP1 at a higher dose of 140 mg. To assess the therapeutic benefit of HEP1, the following disease progression markers were measured by taking blood samples before, during and after each trial and determining: HIV levels by a p24 antigen assay, HIV infectivity by a cellular TCID assay and immune activation by quantitating levels of various lymphocytes.
T cell subsets were measured by adding a whole blood sample to a 4.5 ml tube containing EDTA and staining with monoclonal antibodies to CD3, CD4 and CD8. The percentage of T cells in Peripheral Blood Lymphocytes were determined by flow-cytometric procedures. The numbers of CD4 and CD8 T cells were determined by obtaining total and differential white-cell counts and multiplying by the appropriate factor obtained on flow cytometry.
The following markers of HIV disease progression were assayed: p24Ag (the concentration of HIV p24 protein in picogram/ml in the blood), TCID (the infectivity of the HIV in the cells of blood sample measured by an in vitro cell culture assay in which a serial dilution of the sample was mixed with activated uninfected PBMC and the level of HIV infection determined by p24Ag assay), total white count (immune activation measured by the number of white cells per mm^3), CD4 (the number of CD4 positive cells per mm^3), CD8 (the number of CD8 positive cells per mm^3), NK (the number of Natural Killer cells per mm^3), Lymphocytes (the number of cells per mm^3), Monocytes (the number of cells per mm^3), and Granulocytes (the number of cells per mm^3). Normalised data was calculated by dividing each data point by the value of its data series on day 1 of the trail and multiplying by 100.

[1] = oral HEP1 10 mg daily day 2-22, day-69, before treatment
[2] = orally administered HEP1 10 mg daily
[3] = single subcutaneous HEP1 dose on day 1, day 1*, four hours after injection
[4] = single subcutaneous HEP1 dose on day 1, day 1, before injection
[5] = single subcutaneous HEP1 dose on day 1, day 6, after injection
[6] = single subcutaneous HEP1 dose on day 1, day-7, before treatment
[7] = single subcutaneous HEP1 dose on day 1, day-56, before treatment
[8] = single subcutaneous HEP1 dose on day 1, day-91, end of oral study
[9] = subcutaneous administration of one larger dose of HEP1

CC(C)[C@H](NC(=O)[C@@H](NC(=O)[C@H](CCC(=O)O)NC(=O)[C@H](CCCNC(=N)N)NC(=O)[C@H](CCCNC(=N)N)NC(=O)[C@H](CCCCN)NC(=O)[C@H](CCCCN)NC(=O)[C@H](CCC(=O)O)NC(=O)[C@@H](N)[C@@H](C)O)[C@@H](C)O)C(=O)N[C@@H](CCC(=O)O)C(=O)N[C@@H](CCCNC(=N)N)C(=O)N[C@@H](CCC(=O)O)C(=O)N[C@@H](CCCCN)C(=O)N[C@@H](CCC(=O)O)C(=O)O [HEP1, NH2 ThrGluLysLysArgArgGluThrValGluArgGluLysGluCOOH] (H-TEKKRRETVEREKE-OH)
NK, normalised data (day 1 = 100) [1]: 67 | White count [1]: 7900 cells per mm^3 | White count, normalised data (day 1 = 100) [1]: 96 | CD4 count, course [2]: no significant increase | CD8, course [2]: increased during treatment | total white cell count, course (immune activation) [2]: fell during and after treatment and fall | % Granulocytes [3]: 55% | % Granulocytes, normalised data (day 1 = 100) [3]: 80 | % Lymphocytes [3]: 33% | % Lymphocytes, normalised data (day 1 = 100) [3]: 142 | % Monocytes [3]: 11% | % Monocytes, normalised data (day 1 = 100) [3]: 138 | CD4 [3]: 120 cells per mm^3 | CD4, normalised data (day 1 = 100) [3]: 150 | CD8 [3]: 1130 cells per mm^3 | CD8, normalised data (day 1 = 100) [3]: 128 | Granulocytes [3]: 2530 cells per mm^3 | Granulocytes, normalised data (day 1 = 100) [3]: 66 | Lymphocytes [3]: 1520 cells per mm^3 | Lymphocytes, normalised data (day 1 = 100) [3]: 118 | Monocytes [3]: 510 cells per mm^3 | Monocytes, normalised data (day 1 = 100) [3]: 113 | NK [3]: 30 cells per mm^3 | NK, normalised data (day 1 = 100) [3]: 267 | White count [3]: 4600 cells per mm^3 | White count, normalised data (day 1 = 100) [3]: 82 | % Granulocytes [4]: 69% | % Granulocytes, normalised data (day 1 = 100) [4]: 100 | % Lymphocytes [4]: 23.3% | % Lymphocytes, normalised data (day 1 = 100) [4]: 100 | % Monocytes [4]: 8% | % Monocytes, normalised data (day 1 = 100) [4]: 100 | CD4 [4]: 80 cells per mm^3 | CD4, normalised data (day 1 = 100) [4]: 100 | CD8 [4]: 880 cells per mm^3 | CD8, normalised data (day 1 = 100) [4]: 100 | Granulocytes [4]: 3860 cells per mm^3 | Granulocytes, normalised data (day 1 = 100) [4]: 100 | Lymphocytes [4]: 1290 cells per mm^3 | Lymphocytes, normalised data (day 1 = 100) [4]: 100 | Monocytes [4]: 450 cells per mm^3 | Monocytes, normalised data (day 1 = 100) [4]: 100 | NK [4]: 30 cells per mm^3 | NK, normalised data (day 1 = 100) [4]: 100 | White count [4]: 5600 cells per mm^3 | White count, normalised data (day 1 = 100) [4]: 100 | % Lymphocytes [5]: 22.2% | CD4 [5]: 80 cells per mm^3 | CD4, normalised data (day 1 = 100) [5]: 100 | CD8 [5]: 780 cells per mm^3 | CD8, normalised data (day 1 = 100) [5]: 89 | White count [5]: 5400 cells per mm^3 | White count, normalised data (day 1 = 100) [5]: 96 | % Granulocytes [6]: 81% | % Granulocytes, normalised data (day 1 = 100) [6]: 117 | % Lymphocytes [6]: 12.9% | % Lymphocytes, normalised data (day 1 = 100) [6]: 55 | % Monocytes [6]: 7% | % Monocytes, normalised data (day 1 = 100) [6]: 88 | CD4 [6]: 70 cells per mm^3 | CD4, normalised data (day 1 = 100) [6]: 88 | CD8 [6]: 670 cells per mm^3 | CD8, normalised data (day 1 = 100) [6]: 76 | Granulocytes [6]: 6640 cells per mm^3 | Granulocytes, normalised data (day 1 = 100) [6]: 172 | Lymphocytes [6]: 980 cells per mm^3 | Lymphocytes, normalised data (day 1 = 100) [6]: 76 | Monocytes [6]: 570 cells per mm^3 | Monocytes, normalised data (day 1 = 100) [6]: 127 | NK [6]: 40 cells per mm^3 | NK, normalised data (day 1 = 100) [6]: 133 | White count [6]: 8200 cells per mm^3 | White count, normalised data (day 1 = 100) [6]: 146 | % Granulocytes [7]: 75% | % Granulocytes, normalised data (day 1 = 100) [7]: 109 | % Lymphocytes [7]: 19% | % Lymphocytes, normalised data (day 1 = 100) [7]: 82 | % Monocytes [7]: 6% | % Monocytes, normalised data (day 1 = 100) [7]: 75 | CD4 [7]: 75 cells per mm^3 | CD4, normalised data (day 1 = 100) [7]: 94 | CD8 [7]: 880 cells per mm^3 | CD8, normalised data (day 1 = 100) [7]: 100 | Granulocytes [7]: 4950 cells per mm^3 | Granulocytes, normalised data (day 1 = 100) [7]: 128 | Lymphocytes [7]: 1250 cells per mm^3 | Lymphocytes, normalised data (day 1 = 100) [7]: 97 | Monocytes [7]: 400 cells per mm^3 | Monocytes, normalised data (day 1 = 100) [7]: 89 | NK [7]: 75 cells per mm^3 | NK, normalised data (day 1 = 100) [7]: 250 | White count [7]: 6600 cells per mm^3 | White count, normalised data (day 1 = 100) [7]: 118 | % Granulocytes [8]: 74.5% | % Granulocytes, normalised data (day 1 = 100) [8]: 108 | % Lymphocytes [8]: 20% | % Lymphocytes, normalised data (day 1 = 100) [8]: 86 | % Monocytes [8]: 5.5% | % Monocytes, normalised data (day 1 = 100) [8]: 69 | CD4 [8]: 80 cells per mm^3 | CD4, normalised data (day 1 = 100) [8]: 100 | CD8 [8]: 730 cells per mm^3 | CD8, normalised data (day 1 = 100) [8]: 83 | Granulocytes [8]: 4020 cells per mm^3 | Granulocytes, normalised data (day 1 = 100) [8]: 104 | Lymphocytes [8]: 1050 cells per mm^3 | Lymphocytes, normalised data (day 1 = 100) [8]: 81 | Monocytes [8]: 440 cells per mm^3 | Monocytes, normalised data (day 1 = 100) [8]: 98 | NK [8]: 20 cells per mm^3 | NK, normalised data (day 1 = 100) [8]: 67 | White count [8]: 5500 cells per mm^3 | White count, normalised data (day 1 = 100) [8]: 98 | CD4 and CD8 T cells, course after the rise [9]: return to the pre-injection i levels six days later | rise in CD4 T cells after the HEP1 injection [9]: +50% | rise in CD8 T cells after the HEP1 injection [9]: +28% | CD4+ and CD8+ T cells, course (subcutaneous administration of one larger dose of HEP1 (FIG. 3)): sharp increase
